{"source": "patent US7399769B2", "about": "“Aryl-isoxazol-4-yl-imidazo[1,5-a]pyridine derivatives” (Hoffmann-La Roche Inc., priority 2005, dated 2008)", "target": "T1, human GABA A receptor α5β3γ2 (hα5) (Homo sapiens, UniProt P18507+P31644)", "T1 construct": "expressed in transfected cells; host or cells: HEK293 (transient transfection); membranes prepared from cell pellets", "experiment": "[3H]flumazenil competition binding, human GABA A α5β3γ2 receptors in HEK293 cells", "conditions": "displacement of [3H]flumazenil 0.5 nM; HEK293 cells transiently transfected with human receptors; mean of two determinations", "description": "Membrane Preparation and Binding Assay\nThe affinity of compounds at GABA A receptor subtypes was measured by competition for [3H]flumazenil (85 Ci/mmol; Roche) binding to HEK293 cells expressing rat (stably transfected) or human (transiently transfected) receptors of composition α1β3γ2, α2β3γ2, α3β3γ2 and α5β3γ2.\nCell pellets were suspended in Krebs-tris buffer (4.8 mM KCl, 1.2 mM CaCl2, 1.2 mM MgCl2, 120 mM NaCl, 15 mM Tris; pH 7.5; binding assay buffer), homogenized by polytron for ca. 20 sec on ice and centrifuged for 60 min at 4° C. (50000 g; Sorvall, rotor: SM24=20000 rpm). The cell pellets were resuspended in Krebs-tris buffer and homogenized by polytron for ca. 15 sec on ice. Protein was measured (Bradford method, Bio-Rad) and aliquots of 1 mL were prepared and stored at −80° C.\nRadioligand binding assays were carried out in a volume of […] (96-well plates) which contained […] of cell membranes, [3H]flumazenil at a concentration of 1 nM for α1, α2, α3 subunits and 0.5 nM for α5 subunits and the test compound in the range of […]. Nonspecific binding was defined by 10^−5 M diazepam and typically represented less than 5% of the total binding. […] After drying, filter-retained radioactivity was detected by liquid scintillation counting. Ki values were calculated using Excel-Fit (Microsoft) and are the means of two determinations. […]", "data": [{"compound": "Cc1onc(-c2ccccc2)c1-c1ncc2ccccn12", "note": "[Example 1, 3-(5-Methyl-3-phenyl-isoxazol-4-yl)-imidazo[1,5-a]pyridine]", "values": [{"measurement": "Ki", "value": 77.9, "unit": "nM"}]}]}
